Columns and labels:
Assay in all cases: relative viability (nuclei count vs DMSO), 5 days (fraction); higher = more cells survive
[1] = compound: COC1=CC=C(C=C1)CN2C=CC3=C2C=C(C=C3)C(=O)NO + Nc1nc2[nH]cc(CCc3ccc(C(=O)N[C@@H](CCC(=O)O)C(=O)O)cc3)c2c(=O)[nH]1 [Pemetrexed] (partner 0.2 µM)
Summary of the method: (§1)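 A single step with final 0.05% Triton X-100, 1% formaldehyde and 1 ug/ml Hoechst fixed the cells and stained nuclei 5 days after treatment. Lung cancer cell lines in 1536-well plates had been treated by pin tool the day after seeding with one drug alone or a fixed anchor-drug dose plus five library-drug doses (not always all listed) in √10 steps, and nuclei were counted on 4× images. Relative viability is the ratio of nuclei in treated wells to nuclei in vehicle wells, taken as the median of duplicate plates.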

[2] = compound: COC1=CC=C(C=C1)CN2C=CC3=C2C=C(C=C3)C(=O)NO + O=C(c1cc(Cc2n[nH]c(=O)c3ccccc23)ccc1F)N1CCN(C(=O)C2CC2)CC1 [Olaparib] (partner 8 µM)
Summary of the method: as §1

Veliparib + Pictilisib = compound: C[C@]1(c2nc3c(C(N)=O)cccc3[nH]2)CCCN1 [Veliparib] + CS(=O)(=O)N1CCN(Cc2cc3nc(-c4cccc5[nH]ncc45)nc(N4CCOCC4)c3s2)CC1 [Pictilisib] (partner 1 µM)
Summary of the method: as §1

Veliparib + Vorinostat = compound: C[C@]1(c2nc3c(C(N)=O)cccc3[nH]2)CCCN1 [Veliparib] + O=C(CCCCCCC(=O)Nc1ccccc1)NO [Vorinostat] (partner 1 µM)
Summary of the method: as §1

Row | Cell Line | relative viability ([1]; first compound 0.08 µM) | relative viability ([1]; first compound 0.253 µM) | relative viability ([1]; first compound 0.8 µM) | relative viability ([1]; first compound 2.53 µM) | relative viability ([1]; first compound 8 µM) | relative viability ([2]; first compound 0.08 µM) | relative viability ([2]; first compound 0.253 µM) | relative viability ([2]; first compound 0.8 µM) | relative viability ([2]; first compound 2.53 µM) | relative viability ([2]; first compound 8 µM) | relative viability (Veliparib + Pictilisib; first compound 0.02 µM) | relative viability (Veliparib + Pictilisib; first compound 0.06325 µM) | relative viability (Veliparib + Pictilisib; first compound 0.2 µM) | relative viability (Veliparib + Pictilisib; first compound 0.6325 µM) | relative viability (Veliparib + Pictilisib; first compound 2 µM) | relative viability (Veliparib + Vorinostat; first compound 0.02 µM) | relative viability (Veliparib + Vorinostat; first compound 0.06325 µM) | relative viability (Veliparib + Vorinostat; first compound 0.2 µM) | relative viability (Veliparib + Vorinostat; first compound 0.6325 µM) | relative viability (Veliparib + Vorinostat; first compound 2 µM)
1 | NCI-H3122 | 0.2 | 0.208 | 0.195 | 0.209 | 0.193 | 0.624 | 0.642 | 0.616 | 0.6 | 0.583 | 0.576 | 0.599 | 0.673 | 0.552 | 0.611 | 0.906 | 1.05 | 0.972 | 0.929 | 1.07
2 | PC-3 [JPC-3] | 1.04 | – | 1.14 | 1.21 | 1.12 | 1.1 | – | 1.11 | 1.19 | 1.14 | 0.774 | 0.689 | 0.774 | 0.69 | 0.758 | 0.68 | – | 1.02 | 1.03 | 0.922
3 | PC-14 | 0.107 | 0.132 | 0.14 | 0.135 | 0.152 | 0.242 | 0.224 | 0.306 | 0.236 | 0.215 | 0.624 | 0.513 | 0.616 | 0.673 | 0.662 | – | 0.622 | 0.701 | 0.639 | 0.64
4 | RERF-LC-KJ | 0.442 | 0.502 | 0.482 | 0.501 | 0.521 | 0.829 | 0.825 | 0.986 | 0.816 | 0.806 | 0.59 | 0.529 | 0.592 | 0.563 | 0.454 | 0.51 | 0.61 | 0.679 | 0.665 | 0.64
5 | SK-LU-1 | 0.942 | 0.973 | 1 | 1.01 | 0.953 | 0.436 | 0.443 | 0.627 | 0.449 | 0.422 | 0.624 | 0.573 | 0.483 | 0.585 | 0.536 | 0.946 | 0.837 | 0.906 | 0.722 | 0.754
6 | SK-MES-1 | 0.968 | 0.985 | 0.9 | 0.896 | 0.849 | 0.788 | 0.665 | 0.676 | 0.64 | 0.598 | 0.373 | 0.295 | 0.402 | 0.336 | 0.347 | 1.19 | 1.08 | 1.09 | 1.04 | 1.07
7 | UMC-11 | 0.568 | 0.854 | 0.823 | 0.793 | 0.784 | 0.373 | 0.355 | 0.415 | 0.911 | 0.373 | 0.779 | 0.891 | 0.817 | 0.876 | 0.883 | 0.432 | 0.354 | 0.365 | 0.381 | 0.394

— the supplement of paper PMC10307832
